# Laboratory results as given in ChEMBL document CHEMBL1201862, “PubChem BioAssay data set” (2004).
#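 Grown in 96-well plates, cells were treated for 48 hours with each compound at five concentrations. Insufficient inhibition: endpoint recorded as highest concentration tested. GI50 is the concentration that inhibits growth by half.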 The source made the active and inactive calls. No stated cut-off is given here; in the data, active = GI50 up to about 1.1 µM and inactive = higher.
# Tests used:
# Assay in all cases: growth of human tumour cells (NCI), 48 h
# SK-OV-3 = test system: SK-OV-3
# MDA-MB-435 = test system: MDA-MB-435
# IGROV-1 = test system: IGROV-1
# U-251 = test system: U-251
# Hs-578T = test system: Hs-578T
# SN12C = test system: SN12C
# SF-268 = test system: SF-268
# HCT-116 = test system: HCT-116
# T47D = test system: T47D
# SNB-19 = test system: SNB-19
# PC-3 = test system: PC-3
# M14 = test system: M14
# BT-549 = test system: BT-549
# UO-31 = test system: UO-31
# NCI-H460 = test system: NCI-H460
# A498 = test system: A498
# MCF7 = test system: MCF7
# SNB-75 = test system: SNB-75
# SW-620 = test system: SW-620
# SR = test system: SR
SMILES,GI50 (SK-OV-3),GI50 (MDA-MB-435),GI50 (IGROV-1),GI50 (U-251),GI50 (Hs-578T),GI50 (SN12C),GI50 (SF-268),GI50 (HCT-116),GI50 (T47D),GI50 (SNB-19),GI50 (PC-3),GI50 (M14),GI50 (BT-549),GI50 (UO-31),GI50 (NCI-H460),GI50 (A498),GI50 (MCF7),GI50 (SNB-75),GI50 (SW-620),GI50 (SR)
CN(C)CC/C=C1\c2ccccc2Sc2ccc(Cl)cc21,16.3 µM (inactive),10.3 µM (inactive),11.9 µM (inactive),12.7 µM (inactive),14.4 µM (inactive),15.2 µM (inactive),14.1 µM (inactive),11.6 µM (inactive),16.3 µM (inactive),15.5 µM (inactive),12.8 µM (inactive),3.01 µM (inactive),15.2 µM (inactive),9.4 µM (inactive),11.7 µM (inactive),14.3 µM (inactive),15.1 µM (inactive),12.3 µM (inactive),16.3 µM (inactive),
CCOP(=O)(OCC)C(Cc1ccccc1)N=C(c1ccccc1)c1ccccc1 (centres undefined),15.2 µM (inactive),13.2 µM (inactive),13.9 µM (inactive),13.3 µM (inactive),11.2 µM (inactive),16.7 µM (inactive),17.8 µM (inactive),14.6 µM (inactive),6.97 µM (inactive),14.6 µM (inactive),3.96 µM (inactive),15.3 µM (inactive),13.2 µM (inactive),11.5 µM (inactive),14.8 µM (inactive),,13.9 µM (inactive),11.5 µM (inactive),12.4 µM (inactive),17.9 µM (inactive)
O=c1cc(NNCc2ccccc2)[nH]c(=O)[nH]1,,> 100 µM (inactive),> 100 µM (inactive),> 100 µM (inactive),58.1 µM (inactive),> 100 µM (inactive),> 100 µM (inactive),> 10 µM (inactive),0.678 µM (active),> 100 µM (inactive),> 100 µM (inactive),> 100 µM (inactive),> 100 µM (inactive),74 µM (inactive),> 100 µM (inactive),> 100 µM (inactive),> 100 µM (inactive),,> 100 µM (inactive),> 100 µM (inactive)
CCOP(=O)(OCC)C(C)(C)OC(=O)NC(F)(F)F,> 100 µM (inactive),> 100 µM (inactive),> 100 µM (inactive),> 100 µM (inactive),> 100 µM (inactive),> 100 µM (inactive),> 100 µM (inactive),> 100 µM (inactive),> 100 µM (inactive),> 100 µM (inactive),> 100 µM (inactive),> 100 µM (inactive),> 100 µM (inactive),> 100 µM (inactive),> 100 µM (inactive),,> 100 µM (inactive),> 100 µM (inactive),> 100 µM (inactive),> 100 µM (inactive)
CC[C@]12C=CCN3CC[C@@]4(c5cc(Br)c(OC)cc5N(C)[C@H]4[C@@](O)(C(=O)N[C@@H](Cc4ccc(O)cc4)C(=O)OC)[C@@H]1O)[C@@H]32,74.5 µM (inactive),16.4 µM (inactive),19.5 µM (inactive),14.6 µM (inactive),20.7 µM (inactive),16.5 µM (inactive),13.6 µM (inactive),34.8 µM (inactive),57.7 µM (inactive),> 100 µM (inactive),39 µM (inactive),28 µM (inactive),20.7 µM (inactive),27.2 µM (inactive),18.2 µM (inactive),18.1 µM (inactive),23.1 µM (inactive),,32.9 µM (inactive),13.8 µM (inactive)
COc1ccc(C2Oc3c(cccc3OC)C=C2[N+](=O)[O-])cc1 (centres undefined),4.26 µM (inactive),2.12 µM (inactive),3.33 µM (inactive),1.86 µM (inactive),2.58 µM (inactive),2.02 µM (inactive),2.69 µM (inactive),1.28 µM (inactive),3.75 µM (inactive),3.99 µM (inactive),1.69 µM (inactive),0.743 µM (active),1.36 µM (inactive),1.71 µM (inactive),1.81 µM (inactive),,2.18 µM (inactive),,,2 µM (inactive)
CN1C(=O)C(O)C[C@@H]1c1ccccc1 (some centres undefined),> 100 µM (inactive),> 100 µM (inactive),> 100 µM (inactive),> 100 µM (inactive),> 100 µM (inactive),> 100 µM (inactive),> 100 µM (inactive),> 100 µM (inactive),> 100 µM (inactive),> 100 µM (inactive),> 100 µM (inactive),> 100 µM (inactive),> 100 µM (inactive),> 100 µM (inactive),,,> 100 µM (inactive),> 100 µM (inactive),> 100 µM (inactive),> 100 µM (inactive)
